{
  "source": "patent US20130059362A1",
  "about": "“BIOSENSORS COMPRISING PROTEIN-BINDING DOMAINS AND FLUORESCENT PROTEINS” (SIGMA-ALDRICH CO., LLC, priority 2010, published 2013)",
  "test_system": "EGFR",
  "assay": "Ligand activation of EGFR monitored by relocalization of the 2×(SH2)Grb2 biosensor in live cells",
  "type": "cell-based, human",
  "settings": "100 ng/mL; much less than EGF",
  "protocol": "The nucleic acid encoding TagGFP-2×(SH2)Grb2 was cloned into a lentiviral vector. Lentiviral particles were prepared and used to stably transfect A549 cells with the TagGFP:2×(SH2)Grb2 biosensor.\nThe cell nuclei were labeled with 1 μM DRAQ5.\nA variety of other ligands were tested for their ability to activate EGFR, as monitored by the SH2 biosensor. […] Most of the ligands were tested for activity with the TagGFP:2×(SH2)Grb2 biosensor in live cells. […]",
  "data": [
    {"substance": "HGF: a growth factor that binds HGFR", "values": [
      {"measurement": "Activity (relocalization of the SH2 biosensor)", "result": "showed activity"}
    ]}
  ]
}
